Legend:
MCF7 = test: Antiproliferative activity against human estrogen receptor positive MCF7 cells after 72 hrs; format: functional, cell-based; settings: MCF7, 72 h
SK-BR-3 = test: Antiproliferative activity against human estrogen receptor negative SKBr3 cells overexpressing Her2 after 72 hrs; format: functional, cell-based; settings: SK-BR-3, 72 h

Compound	IC50 (MCF7)	IC50 (SK-BR-3)
O=C(Nc1ccc2c(c1)OCCO2)c1ccc(C(=O)Nc2ccc3c(c2)OCCO3)nc1	> 100 µM	> 100 µM
O=C(Nc1ccc2c(c1)OCCO2)c1cccc(C(=O)Nc2ccc3c(c2)OCCO3)c1	> 100 µM	> 100 µM
O=C(Nc1ccc2c(c1)OCO2)c1ccc(C(=O)Nc2ccc3c(c2)OCO3)nc1	> 100 µM	> 100 µM
O=C(Nc1ccc2ccccc2c1)c1ccc(C(=O)Nc2ccc3ccccc3c2)nc1	> 100 µM	> 100 µM
O=C(CCCCCCC(=O)Nc1ccc2c(c1)OCCO2)Nc1ccc2c(c1)OCCO2	> 100 µM	> 100 µM
O=C(Nc1cc(Cl)cc(Cl)c1)c1ccnc(C(=O)Nc2cc(Cl)cc(Cl)c2)c1	4.2 µM	10.5 µM
O=C(Nc1cc(F)cc(F)c1)c1cccc(C(=O)Nc2cc(F)cc(F)c2)c1	> 100 µM	> 100 µM
O=C(Nc1ccc2c(c1)OCCOCCOCCOCCO2)c1cccc(C(=O)Nc2ccc3c(c2)OCCOCCOCCOCCO3)c1	> 100 µM	> 100 µM
O=C(Nc1cc(F)cc(F)c1)c1cccc(C(=O)Nc2cc(F)cc(F)c2)n1	> 100 µM	> 100 µM
Cc1c(O)ccc2cc(NC(=O)c3cccc(C(=O)Nc4cc5ccc(O)c(C)c5oc4=O)c3)c(=O)oc12	> 100 µM	> 100 µM
COc1cc(NC(=O)c2cccc(C(=O)Nc3cc(OC)cc(OC)c3)c2)cc(OC)c1	> 100 µM	> 100 µM
O=C(Nc1cc(F)cc(F)c1)c1ccc(C(=O)Nc2cc(F)cc(F)c2)nc1	> 100 µM	> 100 µM
O=C(Nc1cccc(Cl)c1)c1cccc(C(=O)Nc2cccc(Cl)c2)c1	56.5 µM	> 100 µM
O=C(Nc1ccc2c(c1)OCCOCCOCCOCCO2)c1ccc(C(=O)Nc2ccc3c(c2)OCCOCCOCCOCCO3)nc1	7.2 µM	4.5 µM
O=C(Nc1ccc(Cl)cc1O)c1ccc(C(=O)Nc2ccc(Cl)cc2O)nc1	> 100 µM	> 100 µM
O=C(Nc1ccc2c(c1)OCCO2)c1ccc(C(=O)Nc2ccc3c(c2)OCCO3)c([N+](=O)[O-])c1	> 100 µM	> 100 µM
O=C(Nc1ccc2c(c1)OCCO2)c1cnc(C(=O)Nc2ccc3c(c2)OCCO3)cn1	> 100 µM	> 100 µM
Cc1c(O)ccc2cc(NC(=O)c3ccnc(C(=O)Nc4cc5ccc(O)c(C)c5oc4=O)c3)c(=O)oc12	> 100 µM	> 100 µM
O=C(Nc1ccc(F)c(F)c1)c1ccnc(C(=O)Nc2ccc(F)c(F)c2)c1	> 100 µM	> 100 µM
N#Cc1ccc(NC(=O)c2cccc(C(=O)Nc3ccc(C#N)cc3)c2)cc1	> 100 µM	> 100 µM
O=C(Nc1cc(Cl)cc(Cl)c1)c1ccc(C(=O)Nc2cc(Cl)cc(Cl)c2)cc1	> 100 µM	> 100 µM
O=C(Nc1ccc(F)c(F)c1)c1ccc(C(=O)Nc2ccc(F)c(F)c2)nc1	> 100 µM	> 100 µM

Compound	IC50 (MCF7)	IC50 (SK-BR-3)
Cc1c(O)ccc2cc(NC(=O)c3ccc(C(=O)Nc4cc5ccc(O)c(C)c5oc4=O)nc3)c(=O)oc12	> 100 µM	> 100 µM
O=C(NCCc1ccc2c(c1)OCO2)c1ccc(C(=O)NCCc2ccc3c(c2)OCO3)nc1	> 100 µM	> 100 µM
Cc1cc(C)cc(NC(=O)c2cccc(C(=O)Nc3cc(C)cc(C)c3)n2)c1	> 100 µM	> 100 µM
COc1cc(NC(=O)c2cccc(C(=O)Nc3cc(OC)cc(OC)c3)n2)cc(OC)c1	52.1 µM	> 100 µM
O=C(Nc1cccc(Cl)c1)c1ccnc(C(=O)Nc2cccc(Cl)c2)c1	2.4 µM	9 µM
Cc1cc(C(=O)Nc2cc(Cl)cc(Cl)c2)c(C)cc1C(=O)Nc1cc(Cl)cc(Cl)c1	> 100 µM	> 100 µM
O=C(Nc1cc(Cl)cc(Cl)c1)c1cccc(C(=O)Nc2cc(Cl)cc(Cl)c2)c1	2.7 µM	4.5 µM
O=C(Nc1cc(F)ccc1F)c1ccnc(C(=O)Nc2cc(F)ccc2F)c1	> 100 µM	> 100 µM
Cc1cc(C(=O)Nc2ccc3c(c2)OCCO3)c(C)cc1C(=O)Nc1ccc2c(c1)OCCO2	> 100 µM	> 100 µM
O=C(Nc1ccccc1F)c1ccc(C(=O)Nc2ccccc2F)nc1	> 100 µM	> 100 µM
O=C(Nc1cc(Cl)cc(Cl)c1)c1cc(Cl)c(C(=O)Nc2cc(Cl)cc(Cl)c2)cc1Cl	> 100 µM	> 100 µM
O=C(Nc1ccc2c(c1)OCCO2)c1cc(Cl)c(C(=O)Nc2ccc3c(c2)OCCO3)cc1Cl	> 100 µM	> 100 µM
Cc1cc(C)cc(NC(=O)c2ccc(C(=O)Nc3cc(C)cc(C)c3)nc2)c1	16.3 µM	104 µM
O=C(Nc1cc(Cl)cc(Cl)c1)c1cccc(C(=O)Nc2cc(Cl)cc(Cl)c2)n1	10.2 µM	16.3 µM
O=C(Nc1ccc2c(c1)OCCO2)c1cccc(C(=O)Nc2ccc3c(c2)OCCO3)n1	27.5 µM	> 100 µM
O=C(Nc1ccccc1F)c1ccnc(C(=O)Nc2ccccc2F)c1	40.4 µM	87.7 µM
O=C(Nc1ccc(O)cc1)c1ccc(C(=O)Nc2ccc(O)cc2)nc1	> 100 µM	> 100 µM
N#Cc1ccc(NC(=O)c2ccnc(C(=O)Nc3ccc(C#N)cc3)c2)cc1	> 100 µM	> 100 µM
COc1cc(NC(=O)c2ccnc(C(=O)Nc3cc(OC)cc(OC)c3)c2)cc(OC)c1	> 100 µM	> 100 µM
O=C(Nc1cc(Cl)cc(Cl)c1)c1ccc(C(=O)Nc2cc(Cl)cc(Cl)c2)nc1	4.1 µM	2.3 µM
O=C(Nc1cc(F)ccc1F)c1ccc(C(=O)Nc2cc(F)ccc2F)nc1	> 100 µM	> 100 µM
O=C(Nc1cc(F)ccc1F)c1cccc(C(=O)Nc2cc(F)ccc2F)c1	> 100 µM	> 100 µM

Compound	IC50 (MCF7)	IC50 (SK-BR-3)
O=C(Nc1cc(Cl)cc(Cl)c1)c1ccc(C(=O)Nc2cc(Cl)cc(Cl)c2)c2ccccc12	> 100 µM	> 100 µM
O=C(CCCCCCC(=O)Nc1cc(Cl)cc(Cl)c1)Nc1cc(Cl)cc(Cl)c1	> 100 µM	> 100 µM
O=C(NCc1ccc2c(c1)OCO2)c1ccc(C(=O)NCc2ccc3c(c2)OCO3)nc1	> 100 µM	> 100 µM
O=C(Nc1ccc(F)c(F)c1)c1cccc(C(=O)Nc2ccc(F)c(F)c2)n1	> 100 µM	> 100 µM
O=C(Nc1ccc2c(c1)OCCO2)c1ccnc(C(=O)Nc2ccc3c(c2)OCCO3)c1	> 100 µM	> 100 µM
O=C(NC1CCCCC1)c1ccc(C(=O)NC2CCCCC2)nc1	> 100 µM	> 100 µM
O=C(Nc1ccc(F)c(F)c1)c1cccc(C(=O)Nc2ccc(F)c(F)c2)c1	–	> 100 µM
O=C(Nc1ccc2ccccc2c1)c1ccnc(C(=O)Nc2ccc3ccccc3c2)c1	81.8 µM	> 100 µM
O=C(Nc1cc(F)ccc1F)c1cccc(C(=O)Nc2cc(F)ccc2F)n1	> 100 µM	> 100 µM
Cc1c(O)ccc2cc(NC(=O)c3cccc(C(=O)Nc4cc5ccc(O)c(C)c5oc4=O)n3)c(=O)oc12	> 100 µM	> 100 µM
O=C(Nc1cccc(Cl)c1)c1ccc(C(=O)Nc2cccc(Cl)c2)nc1	27.3 µM	28.3 µM
O=C(Nc1ccccc1O)c1ccc(C(=O)Nc2ccccc2O)nc1	> 100 µM	> 100 µM
COc1cc(NC(=O)c2ccc(C(=O)Nc3cc(OC)cc(OC)c3)nc2)cc(OC)c1	22.8 µM	34.9 µM
O=C(Nc1ccc2ccccc2c1)c1cccc(C(=O)Nc2ccc3ccccc3c2)c1	4.6 µM	15.2 µM
O=C(Nc1ccc2c(c1)OCCO2)c1ccc(C(=O)Nc2ccc3c(c2)OCCO3)c2ccccc12	> 100 µM	> 100 µM
Cc1cc(C)cc(NC(=O)c2ccnc(C(=O)Nc3cc(C)cc(C)c3)c2)c1	> 100 µM	> 100 µM
O=C(Nc1ccc2c(c1)OCCO2)c1ccc(C(=O)Nc2ccc3c(c2)OCCO3)cc1	> 100 µM	> 100 µM
CO[C@H]1[C@H](OC(=O)c2ccc(C)[nH]2)[C@H](O)[C@@H](Oc2ccc3c(O)c(NC(=O)c4c[nH]c(C(=O)Nc5c(O)c6ccc(O[C@H]7OC(C)(C)[C@@H](OC)[C@H](OC(=O)c8ccc(C)[nH]8)[C@@H]7O)c(C)c6oc5=O)c4C)c(=O)oc3c2C)OC1(C)C [COUMERMYCIN A1]	6.7 µM	3.2 µM
O=C(Nc1ccccc1F)c1cccc(C(=O)Nc2ccccc2F)c1	> 100 µM	> 100 µM
Cc1cc(C)cc(NC(=O)c2cccc(C(=O)Nc3cc(C)cc(C)c3)c2)c1	2.1 µM	12.2 µM
O=C(Nc1cc(F)cc(F)c1)c1ccnc(C(=O)Nc2cc(F)cc(F)c2)c1	14.7 µM	> 100 µM
